Source: patent US20230210154A1, “SWEET PROTEIN MUTANTS FROM TRUFFLE” (MYCOTECHNOLOGY, INC., priority 2021, published 2023)
Read-outs that look alike come from different tables or passages of the source. Residues, ends and D or L forms follow the SMILES beside them.

Tests used:
sweet taste [1] = test: CATA time intensity of the sweet sensation, trained panel; assay type: in vivo, human
Procedure: Evaluation of thaumatin, sucrose, and SEQ ID NO:21 was carried out using a CATA (click all that apply) time intensity of the sweet sensation of named analytes in water at 0.045 mg/ml for proteins and 10% sucrose. Methodology: Time Intensity Technique; Data collection software: EyeQuestion, responses recorded every 2.57 seconds; Scaling Method: a 15-point sweet scale, e.g. score 5=5% sucrose, score 10=10% sucrose; Evaluation Protocol: small volume sip, tilt and spit test. There were 3-6 panelists and 2 replicates. All samples were blinded and presented with randomized 3-digit codes. Training Strategies: An intense training on sweet scale over 6 weeks on 15-point sweet scale to confidently assign sweet values. Due to unique sweet behavioral patterns, it is necessary to train time intensity principles over 3 weeks. Samples were tasted with a stopwatch to note times and help reach a consensus. # of Panelists: 3-6, # of replications: 2. All samples were blinded and presented with randomized 3-digit codes. Statistical analysis: due to the small # of panelists, a statistical analysis cannot be performed.

sweet taste [2] = test: Concentration-response functions for sweet taste (Opertech Bio); assay type: in vivo; settings: for Relative to Sucrose (mM): equivalency to sucrose on a molar basis; for Relative to Sucrose (mg/ml): equivalency to sucrose on a weight basis; for EC50: half-maximal sweet taste response
Procedure: Opertech Bio (Philadelphia, Pa.) performed a quantitative characterization of the concentration-dependence of the taste properties of the purified his-tagged mycodulcein (SEQ ID NO:21) obtained from E. coli as described in Example 5 and purified as described in Example 4. The sweet-taste potency and relative efficacy of mycodulcein was compared with sucrose and with other sweeteners thaumatin, rebaudioside A, and aspartame. Control standards were solutions of 200 mM sucrose, 100 mM NaCl, 0.5 mM quinine, and 10 mM citric acid. […] Each data point in the curves for mycodulcein, aspartame, thaumatin, rebaudioside A was calculated as the average across 32 replicates and averaged across 16 replicates for the sucrose curve; error bars are SEM. Points for water and sucrose controls were similarly calculated as the average across 128 and 64 replicates, respectively. Curves were fit by non-linear regression.
The concentrations that elicit half-maximal sweet taste response (EC50s, or potencies) were derived from the nonlinear regression. […] Also provided are the equivalencies to sucrose on a molar basis and on a weight basis.

[3] = non-linear regression, read-out: EC50 (molar units)

| Molecule | maximum intensity (Imax) higher than sucrose (sweet taste [1]; 15 point scale, proteins 0.045 mg/ml in water vs 10% sucrose) | Relative to Sucrose (mM) (sweet taste [2]) | Relative to Sucrose (mg/ml) (sweet taste [2]) | EC50 (sweet taste [2]; [3]) | EC50 (sweet taste [2]; read-out: EC50) | time to approach threshold sweetness (Intensity <1) (sweet taste [1]; 10% sucrose in water) |
| --- | --- | --- | --- | --- | --- | --- |
| thaumatin | approximately 1 point | – | – | – | – | – |
| OC[C@H]1O[C@@](CO)(O[C@H]2O[C@H](CO)[C@@H](O)[C@H](O)[C@H]2O)[C@@H](O)[C@@H]1O [sucrose] | – | 1 | 1 | 36 mM | 12300 µg/mL | 162 s |
| COC(=O)[C@H](Cc1ccccc1)NC(=O)[C@@H](N)CC(=O)O [aspartame] (H-Asp-Phe-OMe) | – | 198 | 231 | 0.182 mM | 53.2 µg/mL | – |
